How the values were obtained:
MoMSV-induced sarcomas = assay: microPET/CT in oncoretrovirus (MoMSV) sarcoma model of anti-tumor immunity
Method: All the mice used in these studies were bred and maintained according to the guidelines of the Department of Laboratory Animal Medicine (DLAM) at the University of California, Los Angeles. For the oncoretrovirus-induced sarcoma model, C57/BL6 mice were challenged intramuscularly in the right triceps with the Moloney murine sarcoma and leukemia virus complex (MoMSV) in a volume of 100 uL of PBS as described previously^6. B6-MRL-Fas^1pr/J mice used for systemic autoimmunity studies were purchased from the Jackson Laboratory (stock number 000482). To monitor the immunosuppressive treatment, these mice were given intraperitoneal injections of dexamethasone (DEX, 10 mg/kg) at 24 hr intervals and were scanned by microPET/CT 24 hr after the last injection. Animals were anesthetized with 2% isoflurane, injected intravenously with 200 microCi [^18F]D-FAC and then scanned with microPET/CT; mice were sacrificed immediately after imaging. Organs were rapidly excised, weighed, and the radioactivity was measured in a well counter. After decay correction, results were expressed as percent of the injected dose of activity per gram of tissue (% ID/g). Other mice were anesthetized with 2% isoflurane and injected intravenously with 1 mCi [^18F]D-FAC. After 1 hr, mice were euthanized, embedded in 3% carboxymethyl cellulose (CMC, Sigma), and frozen in 100% ethanol with dry ice for 45 min. The 50 micron sections were cut using a whole body cryostat, (PMV, Stockholm, Sweden); samples were exposed overnight on BAS-TR2025 plates (Fujifilm Life Science, Stamford, Conn.). Imaging plates were read using a Fujibas-5000 phosphorimager (16 bit, 25 micron resolution; Fujifilm Life Science).
In this model, antigen-specific T cells primed by immunodominant epitopes encoded by viral gag and env genes rapidly expand in spleen and tumor draining lymph nodes (DLNs) and then traffic to the tumor lesion which is rejected over a period of 2-5 weeks^17,18. In fact, the kinetics of T cell responses against MoMSV-induced sarcomas have been studied extensively using conventional ex vivo approaches and our group has used PET reporter gene imaging to visualize tumor rejection in this model^17. To analyze whether the [^18F]D-FAC microPET/CT imaging can detect sites of localized immune activation, mice were scanned before and after the virus challenge.
To determine whether [^18F]D-FAC can provide unique information regarding localized immune activation via the afore-mentioned model, the mice imaged by [^18F]D-FAC were also scanned on consecutive days using [^18F]FDG and [^18F]FLT.

[1] = tested on: L1210 wild type or 10K subcutaneous tumors; assay: PET of subcutaneous L1210 wild type and 10K tumors; format: in vivo, SCID mice; conditions: 4 days after injection
Method: To investigate whether [^18F]D-FAC PET can distinguish gemcitabine-sensitive cancer cells from the resistant cancer cells in vivo, mice were injected with L1210 wild type or 10K cells to establish subcutaneous tumors; mice were scanned with [^18F]FDG PET to confirm that implanted cells were viable and growing in vivo and [^18F]D-FAC PET scans were carried out to compare D-FAC accumulation in gemcitabine sensitive versus resistant cells. […] The mice were injected 4 days prior to imaging.
Mice were challenged with the MoMSV onco-retrovirus.

human U87 cells = assay: microPET/CT of implanted U87 glioma; format: in vivo, SCID mice; conditions: imaged 10 days after 1×10^6 cells subcutaneously
Method: In addition to immune diseases, [^18F]D-FAC may also be used to measure dysregulated nucleoside metabolism in cancer. To this end, we examined the utility of [^18F]D-FAC microPET in animal models representative of leukemia or lymphoma, melanoma, and glioma tumors (FIG. 12, where the images are 1 mm coronal sections from [^18F]D-FAC microPET/CT scans 1 hr after probe injection). In FIG. 12A, SCID mice were injected intravenously with Ba/F3 cells expressing p210 BCR-ABL and go on to develop aggressive disease with massive splenic infiltration that typically results in death within ˜15 days (mice shown were imaged on day 12). In FIG. 12B, the NOD SCID mice were transplanted with wild type total bone marrow cells infected with MSCV-GFP-IRES-P185 BCR-ABL retroviral stocks and the leukemic mice were imaged 28 days following transplantation. In FIG. 12C, C57BL/6 was injected subcutaneously with 1×10^5 B16 melanoma cells and imaged 7 days later. In FIG. 12D, SCID mice were injected subcutaneously with 1×10^6 U87 glioma cells and imaged 10 days later. […] [^18F]D-FAC PET also detected implanted murine B16 cells (representative of malignant melanoma) and human U87 cells (representative of glioma tumors). […]

Nc1ccn([C@@H]2O[C@H](CO)[C@@H](O)[C@@H]2[18F])c(=O)n1 [[^18F]D-FAC, 1-(2′-deoxy-2′-[^18F]fluoro-β-D-arabinofuranosyl)cytosine]
accumulation in the spleen and tumor DLNs relative to baseline scans (MoMSV-induced sarcomas; day 15, peak of anti-tumor immune response): significantly increased
accumulation in the tumor (MoMSV-induced sarcomas; tumor): 6.7±0.3 % ID/g
accumulation in the tumor DLNs (MoMSV-induced sarcomas; tumor draining lymph nodes): 13±2.7 % ID/g
accumulation in tumor over background (contralateral muscle tissue) (MoMSV-induced sarcomas; tumor lesions): 1.9±0.3 % ID/g tumor over background
retention/visualization in dCK deficient, gemcitabine resistant tumors ([1]; L1210-10K): did not accumulate
retention/visualization in dCK positive, gemcitabine sensitive tumors ([1]; L1210 WT): clearly detectable
detection of implanted tumor cells by PET (human U87 cells): detected
route of clearance (dynamic microPET/CT time-activity curves): predominantly cleared through the kidney
retention in the brain and the myocardium (mouse, in vivo): low retention
organs with accumulated radioactivity (one hour after intravenous injection): thymus, spleen, intestine, bone/bone marrow and, to a lesser extent, in the liver
Spleen, % ID/g per organ normalized to % ID/g muscle (spleen, 60 min after intravenous injection, 3 mice): 2.16 +/− 0.48 % ID/g per organ normalized to % ID/g muscle
Thymus, % ID/g per organ normalized to % ID/g muscle (thymus, 60 min after intravenous injection, 3 mice): 3.29 +/− 0.48 % ID/g per organ normalized to % ID/g muscle
